{"source": "patent US20140056866A1", "about": "“USE OF BIOLOGICAL OR CHEMICAL CONTROL AGENTS FOR CONTROLLING INSECTS AND NEMATODES IN RESISTANT CROPS” (priority 2010, published 2014)", "key": {"S. frugiperda": {"tested_on": "S. frugiperda", "assay": "Leaf sample bioassay with fall armyworm larvae (Example 3)", "format": "in vivo", "settings": "for Insect Mortality / Leaf Feeding Rating: 48 hours; for Insect Mortality: Jul. 14, 2011; for Leaf Feeding Rating: scale 0 = undamaged to 3 = severe feeding; for additional increase in mortality in the presence of Axmi205: versus clothianidin alone; for increase in mortality above the negative control: Axmi205-negative plants", "experimental": "(§1) Zea Mays (Corn) seed from events traited with Axmi205 were selected. […] The population of the seed used is not entirely transgenic; plants without the trait in their DNA were used for control comparisons.\n(§2) Seed was treated with seed applied pesticides using a hege bowl treater. Applications were made of: Clothianidin; available as Poncho though through Bayer CropScience. Rates were applied as mg ai/seed. The evaluation had non-target variables controlled.\n(§3) During testing, samples of each plant were submitted for PCR to determine if an individual plant carried the Axmi205 gene (positive or negative). Plants for which no PCR results could be obtained were not included in the results.\n(§4) Seed were planted into germination mix at a rate of one seed per root-trainer. Testing was conducted as a randomized complete block with 30 replications. Plants were maintained in a greenhouse and periodically assessed for emergence. After several weeks of growth, leaf samples were taken from plants and used to conduct insect bioassays on species of Lepidoptera. A leaf sample was placed into a Petri-dish and infested with 10 larvae of fall armyworm; Spodoptera frugiperda. After 48 hours dishes were evaluated for insect mortality and leaf feeding damage. When assessing leaf feeding, damage was recorded as a rating between 0-3, where zero was undamaged and three was severely damaged. After approximately three weeks from planting, plants were infested with Diabrotica virgifera (western corn rootworm). Western corn rootworm eggs were infested into the root system of plants. At approximately 15 days post infestation plants were extracted and insect feeding damage was evaluated following Iowa State University's Node-Injury Scale at www.ent.iastate.edu/pest/rootworm/nodeinjury/nodeinjury.html."}, "D. virgifera": {"tested_on": "D. virgifera", "assay": "Western corn rootworm root feeding damage, Node-Injury Scale (Example 3)", "format": "in vivo, Diabrotica virgifera", "settings": "for Root Damage Rating: 0 = undamaged, 3 = severely damaged", "experimental": "as §1, §2, §3, §4"}, "Glycine max (soybean)": {"tested_on": "Glycine max (soybean)", "assay": "Soybean shoot height and plant mass after metalaxyl seed treatment (Example 2)", "format": "in vivo", "experimental": "(§5) Glycine max (soybean) seed from an event traited with Axmi031 was selected. […] Plants that screened negative for the presence of the transgene were used for control comparisons.\n(§6) Seed was treated with seed applied pesticides using a hege bowl treater. Metalaxyl (MTL), available as Allegiance through Bayer CropScience, was applied at rates of 2 and 4 g ai/100 kg seed. Trilex 2000 was also included as a commercial standard package.\n(§7) During testing, samples of each plant were submitted for PCR to determine if an individual plant carried the Axmi031 gene (Positive or Negative). Plants for which no PCR results could be obtained were not included in results. There were a disproportionate number of positive plants. As a result, the number of negative plants available in some comparisons was very small.\n(§8) Testing was conducted as a randomized complete block with 30 replications. Seed were planted into sand at a rate of one seed per pot. Plants were stored at 10° C. for eight days and then moved to 25° C. for the remainder of the test. Plants were periodically assessed for emergence. After several weeks of growth plants were evaluated for height. At approximately 40 days after planting, 5 random plants for each treatment comparison were selected for extraction. If fewer than 5 plants were available, evaluations were still conducted as long as a minimum of 3 plants could be assessed. Exacted plants were measured by hand to determine root length and mass and evaluated using WinRHIZO image analysis system (available through Regent instruments at www.regent.qc.ca/products/rhizo/WinRHIZO.html."}, "[1]": {"tested_on": "Glycine max (soybean) roots", "assay": "WinRHIZO root image analysis of soybean (Example 2)", "format": "in vivo", "experimental": "as §5, §6, §7, §8"}, "SCN (inbred colony OP50)": {"tested_on": "SCN (inbred colony OP50)", "assay": "SCN cyst counts on soybean pot plants, seed treated with fluopyram (Example 1)", "format": "in vivo, soybean cyst nematodes", "settings": "base (color/coating) treatment only, two months after planting", "experimental": "Two tests were planted with Jack (an SCN resistant soybean variety with PI 88788 resistance) and two genetically modified Jack varieties (AXN2 and AXMI031) known to produce a nematicidal protein. The seed were treated with a color/coating base or the same base plus one of two different rates of fluopyram (experiment 1 used 0.075 mg fluopyram/seed and experiment 2 used 0.15 mg fluopyram/seed). The SCN used to inoculate both tests were collected from an inbred colony (OP50) with the ability to overcome PI 88788 resistance.\nTests were conducted as non-randomized blocks with a minimum of 10 replicates. Seed were planted in individual 4″ clay pots with coarse sand and inoculated with approximately 20,000 OP50 juveniles in ten equal inoculations beginning at planting and again approximately every third day. Plants were maintained in a germination chamber. Blocks were rotated approximately every third day to minimize potential influence of environmental variance. Two months after planting, plants were harvested and cysts were collected and counted to evaluate the efficacy of the nematicide and traits, both individually and in combination with each other."}, "SCN (HG2.5.7)": {"tested_on": "SCN (HG2.5.7)", "assay": "SCN cyst counts on Axmi031 soybean treated with Bacillus firmus (Example 4, FIG. 2)", "format": "in vivo, soybean cyst nematodes", "settings": "Axmi031 expression", "excerpt": "Soybeans (6-10 seeds each) in this study included: Control SB171 (transfected control with non gene of interest); SB 171 treated with Bacillus firmus CNCM I-1582 spore control plant; Axmi031 transgenic plant (which also contains non gene of interest); Axmi031 transgenic plant (which also contains non gene of interest) treated with Bacillus firmus CNCM I-1582 spore.\nSoybeans (6-10 seeds/plant and treatment) were planted into 4″ clay pots in sand infested with approximately 37,000 SCN eggs (HG2.5.7) at time of planting. Soybean plants were reinfested with 20,000 SCN eggs (HG2.5.7) at approximately 4 weeks post planting. Plants were grown 57 days post reinfestation date. Cysts were harvested from each pot and counted. PCR and Western analysis were done on each AXMI031 plant. Negative segregants were removed from analysis. Data shown in FIG. 2 represents six plants for SB171 each treatment and all PCR/Western positive Axmi031 plants."}, "[2]": {"settings": "metalaxyl 2 g ai added to Axmi031"}, "[3]": {"settings": "metalaxyl 4 g ai added to Axmi031"}}, "data": [{"molecule": "CN/C(=N\\[N+](=O)[O-])NCc1cnc(Cl)s1", "note": "[clothianidin]", "values": [{"measurement": "Insect Mortality", "setting": "S. frugiperda; CTD 0.125 mg ai/seed", "result": 8, "unit": "%"}, {"measurement": "Leaf Feeding Rating", "setting": "S. frugiperda; CTD 0.125 mg ai/seed", "result": 3.00}, {"measurement": "Insect Mortality", "setting": "S. frugiperda; CTD 0.25 mg ai/seed", "result": 12, "unit": "%"}, {"measurement": "Leaf Feeding Rating", "setting": "S. frugiperda; CTD 0.25 mg ai/seed", "result": 2.77}, {"measurement": "Insect Mortality", "setting": "S. frugiperda; CTD 0.5 mg ai/seed", "result": 11, "unit": "%"}, {"measurement": "Leaf Feeding Rating", "setting": "S. frugiperda; CTD 0.5 mg ai/seed", "result": 3.00}, {"measurement": "additional increase in mortality in the presence of Axmi205", "setting": "S. frugiperda; clothianidin 0.125 mg ai/seed", "result": 88, "unit": "%"}, {"measurement": "additional increase in mortality in the presence of Axmi205", "setting": "S. frugiperda; clothianidin 0.5 mg ai/seed", "result": 54, "unit": "%"}, {"measurement": "increase in mortality above the negative control", "setting": "S. frugiperda; highest rate of clothianidin (0.5 mg ai/seed)", "result": 57, "unit": "%"}, {"measurement": "increase in mortality above the negative control", "setting": "S. frugiperda; lowest rate of clothianidin (0.125 mg ai/seed)", "result": 14, "unit": "%"}, {"measurement": "increase in mortality above the negative control", "setting": "S. frugiperda; middle rate of clothianidin (0.25 mg ai/seed)", "result": 71, "unit": "%"}, {"measurement": "Root Damage Rating", "setting": "D. virgifera; CTD 0.125 mg ai/seed", "result": 0.56}, {"measurement": "Root Damage Rating", "setting": "D. virgifera; CTD 0.25 mg ai/seed", "result": 0.32}, {"measurement": "Root Damage Rating", "setting": "D. virgifera; CTD 0.5 mg ai/seed", "result": 0.04}, {"measurement": "reduction of root damage over the negative control", "setting": "D. virgifera; highest rate of clothianidin tested (0.5 mg ai/seed)", "result": 96, "unit": "%"}, {"measurement": "reduction of root damage over the negative control", "setting": "D. virgifera; lowest rate of clothianidin tested (0.125 mg ai/seed)", "result": 67, "unit": "%"}]}, {"molecule": "COCC(=O)N(c1c(C)cccc1C)C(C)C(=O)OC", "note": "(stereo not drawn) [metalaxyl]", "values": [{"measurement": "plant shoot height, trend with rate", "setting": "Glycine max (soybean); metalaxyl 2 and 4 g ai/100 kg seed", "result": "increased with increasing rates"}, {"measurement": "additional increase in plant total mass", "setting": "Glycine max (soybean); metalaxyl 2 g ai on Axmi031 plants", "result": 5, "unit": "%"}, {"measurement": "additional shoot height", "setting": "Glycine max (soybean); metalaxyl 2 g ai/100 kg seed on Axmi031 plants", "result": 5, "unit": "%"}, {"measurement": "increase in above ground plant mass compared to Axmi031 alone", "setting": "Glycine max (soybean); metalaxyl 4 g ai on Axmi031 plants", "result": 11, "unit": "%"}, {"measurement": "additional shoot height", "setting": "Glycine max (soybean); metalaxyl 4 g ai/100 kg seed on Axmi031 plants", "result": 8, "unit": "%"}, {"measurement": "increase in root lengths", "setting": "[1]; [2]", "result": 60, "unit": "%"}, {"measurement": "increase in root surface area", "setting": "[1]; [2]", "result": 42, "unit": "%"}, {"measurement": "increase in root volume", "setting": "[1]; [2]", "result": 27, "unit": "%"}, {"measurement": "increase in root lengths", "setting": "[1]; [3]", "result": 68, "unit": "%"}, {"measurement": "increase in root surface area", "setting": "[1]; [3]", "result": 37, "unit": "%"}, {"measurement": "increase in root volume", "setting": "[1]; [3]", "result": 11, "unit": "%"}, {"measurement": "root tips, forks, and crossings", "setting": "[1]; metalaxyl added to Axmi031, trend with rate", "result": "increased as metalaxyl rate increased"}]}, {"molecule": "Axmi031: nematicidal protein trait expressed in genetically modified soybean (gene axmi031, Table 1) (protein, AXMI-031(A-D)) MDCNLQSQQNIPYNVLAIPVSNVNSLTDTVGDLKKAWEEFQKTGSFSLTALQQGFSASQGGTFNYLTLLQSGISLAGSFVPGGTFVAPIINMVIGWLWPHKNKNADTENLINLIDSEIQKQLNKALLDADRNEWSSYLESIFDSSNNLNGAIVDAQWSGTVNTTNRTLRNPTESDYTNVVTNFIAADGDIANNENHIMNGNFDVAAAPYFVIGATARFAAMQSYIKFCNAWIDKVGLSDAQLTTQKANLDRTKQNMRNAILNYTQQVMKVFKDSKNMPTIGTNKFSVDTYNVYIKGMTLNVLDIVAIWPSLYPDDYTSQTALEQTRVTFSNMVGQEEGTDGSLRIYNTFDSFSYQHSPIPNNNVNLISYYNDELQNLELGVYTPPKKGSGYSYPYGFVLNYANSKYKYGDSNDPESLGGLSTLSAPIQQVNAATQNSKYLDGEILNGIGASLPGYCTTGCSPTEPPFSCTSTANGYKASCNPSDTNQKINALYPFTQANVKGNTGKLGVLASLVSYDLNPKNVFGELDSDTNNVILKGIPAEKGYFPNNARPTVVKEWINGASAVPLDSGNTLFMTATNLTATQYRIRIRYANPNSNTQIGVRITQNGSLISSSNLTLYSTTDMNNTLPLNVYVIGENGNYTLQDLYNTTNVLSTGDITLQITGGDQKIFIDRIEFVPTMPVPGNTNNNNGNNNGNNNPPHHVCAIAGTQQSCSGPPKFEQVSDLEKITTQVYMLFKS", "values": [{"measurement": "percent reduction in average number of cysts compared to Jack", "setting": "SCN (inbred colony OP50); first experiment", "result": 92, "unit": "%"}, {"measurement": "percent reduction in average number of cysts compared to Jack", "setting": "SCN (inbred colony OP50); second experiment", "result": 88, "unit": "%"}, {"measurement": "shoot length versus untreated negative control (UTC)", "setting": "Glycine max (soybean); 28 days after planting (DAP), Axmi031 without metalaxyl", "result": 14, "unit": "%"}, {"measurement": "increase in plant total mass", "setting": "Glycine max (soybean); presence of Axmi031, no metalaxyl", "result": 13, "unit": "%"}, {"measurement": "WinRHIZO root values versus negative control", "setting": "[1]; Axmi031 as an individual component", "result": "comparable to, or slightly below, the negative control"}, {"measurement": "SCN cyst counts in transgenic soybean plants", "setting": "SCN (HG2.5.7)", "result": "correlates with reduction in SCN cysts counts"}]}, {"molecule": "Axn2: nematicidal protein trait expressed in genetically modified Jack soybean (gene axn2, Table 1) (protein, listed as Bacillus thuringiensis) MRIRRNQSTLSHNERLAFTNAVLELKRRPSRLPMSLGSTSRYDDYVYWHLQSMENQTSTTPGWAHRGPAFLPWHRYYLNQFEEDLQRIDHTVTLPYWDWTVDNSTDSSVPGSPWTDDFMGGDGDPTQEYTVTTGPFTGDNWKLTLFDHHENEPHNARLRRQLGTTLNASGNTISINLPTDSEVQNCLLETPYYVSPWRAGQDVNQPALNPTKPSFCNRLEGWYGAGSIHNKVHVWVAGATEGSMIWMSSPNDPVFFLHHANIDRLWVQWQANNPNEGYHPTGNGNEVGPTGHNLNDSMNPWGRKVTPNNVLNHYSLGYTYDTDSTPLSEIFMHTFNLKIRKEKQIKDGHFGLSQEDLDKL", "values": [{"measurement": "percent reduction in average number of cysts compared to Jack", "setting": "SCN (inbred colony OP50); first experiment", "result": 20, "unit": "%"}, {"measurement": "percent reduction in average number of cysts compared to Jack", "setting": "SCN (inbred colony OP50); second experiment", "result": 43, "unit": "%"}]}]}
